# Test results published in patent US12378201B2, “Histone demethylase inhibitors for treating cancers” (The Board of Regents of the University of Texas System, priority 2019, dated 2025).
# Legend:
# [1] = tested on: LNCaP and 22rv1 cell lines; assay: SAR statements on LNCaP and 22rv1 cell lines; format: cell-based; settings: LNCaP 1 μM, 22rv1 0.5 μM
# Protocol: All compounds were evaluated for their effects on LNCaP and 22rv1 cell lines at 1 and 0.5 μM concentrations, respectively. […] For this purpose different analogues of B-3 with chain length varying from 0 to 4 carbon were synthesized (Table 1). […] In view of the availability of a variety of commercially available benzyl amines over phenyl propyl amines and method to functionalize analogues with 1C chain compound 14c was selected for further modification.
# 22rv1 = assay: Effect on 22rv1 cell viability; settings: for % Cell Viability of 22rv1 at 1 μM: at 1 μM (stated in cell); for viability at 0.5 µM: 22Rv1, read-out: % Cell Viability of 22rv1 at 0.5 μM
# Protocol: (§1) The initial interest was to see the importance of length of side chain on B-3. […] Relative cell growth can be assessed using the MTT (3-(4,5-dimethylthiazol-2-yl)-2,5-diphenyltetrazolium bromide) assay, a colorimetric assay for assessing cell metabolic activity. Cells (1000 to 2000 cells/well) in 150 μL culture medium were seeded in wells of a 96-well plate one day before various concentrations of drugs were added. After continuing culture in the presence of the drugs for the indicated time (3-4 days), 20 μL of 5 mg/mL MTT solution (Sigma-Aldrich) was added into each well. After incubation at 37° C. for 30 min, the culture medium was removed and 100 μL of DMSO was added to dissolve MTT crystals. Plates were shaken for 15 min at room temperature and absorbance at OD590 was read by plate reader.
# LnCap cells = assay: Effect on LnCap cell viability; settings: for viability at 1 µM: Homo sapiens, LNCaP, read-out: % Cell Viability of LnCap cells at 1 μM, 1 μM
# Protocol: as §1
# [2] = tested on: cancer cell lines including PC3; settings: previous report; includes PC3 cells lacking AR; cited from earlier work
# [3] = tested on: KDM4B-regulated AR-V7 expression; settings: previous report; cited from earlier work
# KDM4 = settings: previous report; cited from earlier work
SMILES,"activity on cell lines, in words (SAR) [1]",% Cell Viability of 22rv1 at 0.5 μM (22rv1),% Cell Viability of LnCap cells at 1 μM (LnCap cells),further results
O=C(NCCCCc1ccccc1)c1cccc(-c2cc(O)c3ncccc3c2)c1 [Compound 14a],deterioration of activity,,,
O=C(NCCc1ccccc1)c1cccc(-c2cc(O)c3ncccc3c2)c1 [Compound 14b],deterioration of activity,"83.7% (B-3,",,
O=C(NCc1ccccc1)c1cccc(-c2cc(O)c3ncccc3c2)c1 [Compound 14c],restoration of activity,"79.3% (B-3,",,
O=C(Nc1ccccc1)c1cccc(-c2cc(O)c3ncccc3c2)c1 [Compound 14d],poor activity,,,
O=C(NCc1ccc(F)cc1)c1cccc(-c2cc(O)c3ncccc3c2)c1 [Compound 15a],,,72.8%,
O=C(NCc1cccc(O)c1)c1cccc(-c2cc(O)c3ncccc3c2)c1 [Compound 15e],,,87.9%,
O=C(NCc1ccccc1O)c1cccc(-c2cc(O)c3ncccc3c2)c1 [Compound 15f],,,56.9%,
COc1ccc(CNC(=O)c2cccc(-c3cc(O)c4ncccc4c3)c2)cc1 [Compound 15g],,,68.4%,
COc1cccc(CNC(=O)c2cccc(-c3cc(O)c4ncccc4c3)c2)c1 [Compound 15h],,,"88.5% (B-3, ND)",
COc1cc(CNC(=O)c2cccc(-c3cc(O)c4ncccc4c3)c2)cc(OC)c1OC [Compound 15k],,,"98.1 (B-3, ND) %",
COc1ccc(CNC(=O)c2cccc(-c3cc(O)c4ncccc4c3)c2)cc1OC [Compound 15l],,,"75.7 (B-3, ND) %",
O=C(NCc1ccc(C(F)(F)F)cc1)c1cccc(-c2cc(O)c3ncccc3c2)c1 [Compound 15m],,,67.7%,
O=C(NCc1cccc(C(F)(F)F)c1)c1cccc(-c2cc(O)c3ncccc3c2)c1 [Compound 15n],,,75.4%,
O=C(NCc1ccccc1C(F)(F)F)c1cccc(-c2cc(O)c3ncccc3c2)c1 [Compound 15o],,,94.5%,
O=C(NCc1cc(C(F)(F)F)cc(C(F)(F)F)c1)c1cccc(-c2cc(O)c3ncccc3c2)c1 [Compound 15p],,,62.5%,
O=C(NCc1ccc(C(F)(F)F)cc1F)c1cccc(-c2cc(O)c3ncccc3c2)c1 [Compound 15r],,,101%,
N#Cc1ccc(CNC(=O)c2cccc(-c3cc(O)c4ncccc4c3)c2)cc1 [Compound 15s],,,"52.8% (B-3, ND)",
CN(C)c1ccc(CNC(=O)c2cccc(-c3cc(O)c4ncccc4c3)c2)cc1 [Compound 15t],,19.6%,66.3%,
O=C(NCc1ccncc1)c1cccc(-c2cc(O)c3ncccc3c2)c1 [Compound 15u],,,70.9%,
O=C(NCc1cccs1)c1cccc(-c2cc(O)c3ncccc3c2)c1 [Compound 15v],,,79.8%,
O=C(NCC1CC1)c1cccc(-c2cc(O)c3ncccc3c2)c1 [Compound 15w],,,60.7%,
O=C(NCC1CCCCC1)c1cccc(-c2cc(O)c3ncccc3c2)c1 [Compound 15x],,,"104% (B-3, ND)",
O=C(NCc1ccc(Oc2ccccc2)cc1)c1cccc(-c2cc(O)c3ncccc3c2)c1 [Compound 16a],significant improvement of activity over B-3,,,% Cell Viability of 22rv1 at 1 μM (22rv1): 29.5%

SMILES,"activity on cell lines, in words (SAR) [1]",% Cell Viability of 22rv1 at 0.5 μM (22rv1),% Cell Viability of LnCap cells at 1 μM (LnCap cells),further results
O=C(NCc1ccc(Oc2ccc(Cl)cc2)cc1)c1cccc(-c2cc(O)c3ncccc3c2)c1 [Compound 16b],,,,% Cell Viability of 22rv1 at 1 μM (22rv1): 33.2%
O=C(NCc1ccc(Oc2ccccc2Cl)cc1)c1cccc(-c2cc(O)c3ncccc3c2)c1 [Compound 16c],,,,% Cell Viability of 22rv1 at 1 μM (22rv1): 38.1%
O=C(NCc1ccc(Oc2ccc(F)cc2)cc1)c1cccc(-c2cc(O)c3ncccc3c2)c1 [Compound 16d],,,,% Cell Viability of 22rv1 at 1 μM (22rv1): 35.1%
O=C(NCc1ccc(-c2ccc(C(F)(F)F)cc2)cc1)c1cccc(-c2cc(O)c3ncccc3c2)c1 [Compound 16f],,,44.2%,
CC1Cc2ccc(-c3ccc(CNC(=O)c4cccc(-c5cc(O)c6ncccc6c5)c4)cc3)cc2O1 (centres unmarked) [Compound 16g],,,30.0%,
O=C(NCc1cccc(-c2ccccc2)c1)c1cccc(-c2cc(O)c3ncccc3c2)c1 [Compound 16h],,26.9%,21.8%,
O=C(NCc1cccc(-c2ccc(F)cc2)c1)c1cccc(-c2cc(O)c3ncccc3c2)c1 [Compound 16i],,42.01%,17.3%,
O=C(NCc1ccccc1-c1ccc(CN2CCCC2=O)cc1)c1cccc(-c2cc(O)c3ncccc3c2)c1 [Compound 16j],,14.3%,10.9%,"inhibition of 22rv1 cells, in words (22rv1; compared with B-3): inhibited 22rv1 cells much better than B-3"
O=C(NCc1ccc(C(=O)c2ccccc2)cc1)c1cccc(-c2cc(O)c3ncccc3c2)c1 [Compound 16k],,6.4%,"26.7 (B-3, ND) %",
O=C(O)c1ccc(CNC(=O)c2cccc(-c3cc(O)c4ncccc4c3)c2)cc1 [Compound 17a],,,,viability at 1 µM (LnCap cells): 97.5%
NC(=O)c1ccc(CNC(=O)c2cccc(-c3cc(O)c4ncccc4c3)c2)cc1 [Compound 17b],lower activity than B-3,78.4%,,
COC(=O)c1ccc(CNC(=O)c2cccc(-c3cc(O)c4ncccc4c3)c2)cc1 [Compound 17c],,,,viability at 1 µM (LnCap cells): 47.9%; viability at 0.5 µM (22rv1; Homo sapiens): 12.9%
CCOC(=O)c1ccc(CNC(=O)c2cccc(-c3cc(O)c4ncccc4c3)c2)cc1 [Compound 17d],,22.7%,,
CCCOC(=O)c1ccc(CNC(=O)c2cccc(-c3cc(O)c4ncccc4c3)c2)cc1 [Compound 17e],better than compound 17c,7.9%,,
CC(C)CNC(=O)c1ccc(CNC(=O)c2cccc(-c3cc(O)c4ncccc4c3)c2)cc1 [Compound 17f],proved useful,41.0%,,
CC(C)NC(=O)c1ccc(CNC(=O)c2cccc(-c3cc(O)c4ncccc4c3)c2)cc1 [Compound 17g],proved useful,41.0%,,
O=C(NCc1ccc(C(=O)NC2CCCC2)cc1)c1cccc(-c2cc(O)c3ncccc3c2)c1 [Compound 17i],loss of activity,29.8%,,
O=C(NCc1ccc(C(=O)NC2CCCCC2)cc1)c1cccc(-c2cc(O)c3ncccc3c2)c1 [Compound 17j],significant jump in activity compared to B-3,5.0%,,
O=C(NCc1ccc(C(=O)NC2CCCCCC2)cc1)c1cccc(-c2cc(O)c3ncccc3c2)c1 [Compound 17k],loss of activity,10.8%,,
O=C(NCc1ccc(C(=O)N[C@H]2CC[C@H](C(F)(F)F)CC2)cc1)c1cccc(-c2cc(O)c3ncccc3c2)c1 [Compound 17m],much more active than compound 17n,,24.2%,
O=C(NCc1ccc(C(=O)N[C@H]2CC[C@@H](C(F)(F)F)CC2)cc1)c1cccc(-c2cc(O)c3ncccc3c2)c1 [Compound 17n],17m (trans isomer) was much more active than compound 17n,,,
O=C(NCc1ccc(C(=O)Nc2ccc(C(F)(F)F)cc2)cc1)c1cccc(-c2cc(O)c3ncccc3c2)c1 [Compound 17o],significantly lower activities compared to compounds 17l and 17m,,,
"O=C(NCCCc1ccccc1)c1cccc(-c2cc(O)c3ncccc3c2)c1 [Compound B-3, reference compound]",,,,"effectiveness against cancer cell lines, in words [2]: highly effective against a variety of cancer cell lines including PC3; inhibition of KDM4B-regulated AR-V7 expression, in words [3]: able to inhibit KDM4B-regulated AR-V7 expression; KDM4 inhibition, in words (KDM4): highly selective and potent KDM4 inhibitor; viability at 0.5 µM (22rv1; Homo sapiens): 63.6%; viability at 1 µM (22rv1; Homo sapiens, 22Rv1, read-out: % Cell Viability of 22rv1 at 1 μM): 42.5%"
